The source made the active and inactive calls. The rule behind the calls is not given here.
Columns and labels:
[1] = Neurotoxicity in F-1 albino mouse at 100 mg/kg, ip after 0.5 hrs by rotarod test; assay type: toxicity, organism-based; settings: in vivo
Mus musculus [2] = assay: Anticonvulsant activity in F-1 albino mouse assessed as protection against 32 mA current-induced seizure at 30 mg/kg, ip pretreated at 2 hrs before current challenge by 6 Hz psychomotor seizure test; assay type: functional, organism-based
[3] = Neurotoxicity in F-1 albino mouse at 30 mg/kg, ip after 2 hrs by rotarod test; assay type: toxicity, organism-based; settings: in vivo
Mus musculus [4] = assay: Anticonvulsant activity in F-1 albino mouse assessed as protection against 32 mA current-induced seizure at 300 mg/kg, ip pretreated at 2 hrs by maximal electroshock seizure test; assay type: functional, organism-based
Mus musculus [5] = assay: Anticonvulsant activity in F-1 albino mouse assessed as protection against 32 mA current-induced seizure at 30 mg/kg, ip pretreated at 0.5 hrs by maximal electroshock seizure test; assay type: functional, organism-based
Mus musculus [6] = assay: Anticonvulsant activity in F-1 albino mouse assessed as protection against 32 mA current-induced seizure at 100 mg/kg, ip pretreated at 2 hrs before current challenge by 6 Hz psychomotor seizure test; assay type: functional, organism-based
Mus musculus [7] = assay: Anticonvulsant activity in F-1 albino mouse assessed as protection against 32 mA current-induced seizure at 100 mg/kg, ip pretreated at 2 hrs by maximal electroshock seizure test; assay type: functional, organism-based
[8] = Neurotoxicity in F-1 albino mouse at 100 mg/kg, ip after 2 hrs by rotarod test; assay type: toxicity, organism-based; settings: in vivo
[9] = Neurotoxicity in F-1 albino mouse at 30 mg/kg, ip after 0.5 hrs by rotarod test; assay type: toxicity, organism-based; settings: in vivo
[10] = Neurotoxicity in F-1 albino mouse at 300 mg/kg, ip after 0.5 hrs by rotarod test; assay type: toxicity, organism-based; settings: in vivo
Mus musculus [11] = assay: Anticonvulsant activity in F-1 albino mouse assessed as protection against 32 mA current-induced seizure at 100 mg/kg, ip pretreated at 0.5 hrs by maximal electroshock seizure test; assay type: functional, organism-based
Mus musculus [12] = assay: Anticonvulsant activity in F-1 albino mouse assessed as protection against 32 mA current-induced seizure at 30 mg/kg, ip pretreated at 2 hrs by maximal electroshock seizure test; assay type: functional, organism-based
[13] = Neurotoxicity in F-1 albino mouse at 300 mg/kg, ip after 2 hrs by rotarod test; assay type: toxicity, organism-based; settings: in vivo
Mus musculus [14] = assay: Anticonvulsant activity in F-1 albino mouse assessed as protection against 32 mA current-induced seizure at 100 mg/kg, ip pretreated at 0.5 hrs before current challenge by 6 Hz psychomotor seizure test; assay type: functional, organism-based
Mus musculus [15] = assay: Anticonvulsant activity in F-1 albino mouse assessed as protection against 32 mA current-induced seizure at 300 mg/kg, ip pretreated at 0.5 hrs by maximal electroshock seizure test; assay type: functional, organism-based
Mus musculus [16] = assay: Anticonvulsant activity in ip dosed F-1 albino mouse assessed as protection against 32 mA current-induced seizure pretreated at 0.5 to 2 hrs by maximal electroshock seizure test; assay type: functional; settings: F-1, ip
Mus musculus [17] = assay: Anticonvulsant activity in F-1 albino mouse assessed as protection against 32 mA current-induced seizure at 300 mg/kg, ip pretreated at 0.5 hrs before current challenge by 6 Hz psychomotor seizure test; assay type: functional, organism-based
Mus musculus [18] = assay: Anticonvulsant activity in F-1 albino mouse assessed as protection against 32 mA current-induced seizure at 300 mg/kg, ip pretreated at 2 hrs before current challenge by 6 Hz psychomotor seizure test; assay type: functional, organism-based
Mus musculus [19] = assay: Anticonvulsant activity in F-1 albino mouse assessed as protection against 32 mA current-induced seizure at 30 mg/kg, ip pretreated at 0.5 hrs before current challenge by 6 Hz psychomotor seizure test; assay type: functional, organism-based

Structure (SMILES)	Activity [1]	Activity (Mus musculus [2])	Activity [3]	Activity (Mus musculus [4])	Activity (Mus musculus [5])	Activity (Mus musculus [6])	Activity (Mus musculus [7])	Activity [8]	Activity [9]	Activity [10]	Activity (Mus musculus [11])	Activity (Mus musculus [12])	Activity [13]	Activity (Mus musculus [14])	Activity (Mus musculus [15])	ED50 (Mus musculus [16])	Activity (Mus musculus [17])	Activity (Mus musculus [18])	Activity (Mus musculus [19])
O=C1C=C(NCc2ccc(Br)cc2)CC(C(F)(F)F)C1 (configuration not stated)	Non-Toxic	inactive	Non-Toxic	inactive	inactive	inactive	inactive	Non-Toxic	Non-Toxic	Non-Toxic	inactive	inactive	Non-Toxic						
O=C1C=C(NCc2cccc(OC(F)(F)F)c2)CC(C(F)(F)F)C1 (configuration not stated)	Non-Toxic	inactive	Non-Toxic	Active		inactive	inactive	Non-Toxic	Non-Toxic	Non-Toxic	inactive	inactive	Non-Toxic	inactive	Active				
O=C1C=C(NCc2ccc(F)c(C(F)(F)F)c2)CC(C(F)(F)F)C1 (configuration not stated)	Non-Toxic		Non-Toxic	inactive	inactive		inactive	Non-Toxic	Non-Toxic	Non-Toxic	inactive	inactive	Non-Toxic		inactive	23.5 mg/kg	Active	Active	
O=C1C=C(NCc2cc(C(F)(F)F)cc(C(F)(F)F)c2)CC(C(F)(F)F)C1 (configuration not stated)	Non-Toxic		Non-Toxic	inactive	inactive	inactive	inactive	Non-Toxic	Non-Toxic	Non-Toxic	inactive	inactive	Non-Toxic		inactive				
NC(=O)N1c2ccccc2C=Cc2ccccc21 [CARBAMAZEPINE]																28.2 mg/kg			
COc1ccc(CNC2=CC(=O)CC(C(F)(F)F)C2)cc1 (configuration not stated)	Non-Toxic	inactive	Non-Toxic	inactive	inactive		inactive	Non-Toxic	Non-Toxic	Non-Toxic	inactive	inactive	Non-Toxic		inactive				inactive
O=C1C=C(Nc2ccc(Cl)cc2)CC(C(F)(F)F)C1 (configuration not stated)			Non-Toxic						Non-Toxic							62.4 mg/kg			
O=C1C=C(NCc2cc(F)ccc2F)CC(C(F)(F)F)C1 (configuration not stated)	Non-Toxic	inactive	Non-Toxic	inactive	inactive	inactive	inactive	Non-Toxic	Non-Toxic	Non-Toxic	inactive	inactive	Non-Toxic		inactive		Active	Active	inactive
O=C1C=C(Nc2ccc(Br)cc2C(=O)O)CC(C(F)(F)F)C1 (configuration not stated)	Non-Toxic	inactive	Non-Toxic	inactive	inactive	inactive	inactive	Non-Toxic	Non-Toxic	Non-Toxic	inactive	inactive	Non-Toxic						inactive
O=C1C=C(NCc2cccc(C(F)(F)F)c2)CC(C(F)(F)F)C1 (configuration not stated)	Non-Toxic	inactive	Non-Toxic	inactive	inactive		inactive	Non-Toxic	Non-Toxic	Non-Toxic	inactive	inactive	Non-Toxic						inactive
